Entries after “also recorded” stand apart in the source; their conditions may differ.
Tests used:
Format in all cases: cell-based
[1] = test system: H9 human embryonic stem cells; experiment: CellTiter-Glo luminescent cell viability screen, H9; details: pluripotent stem cells
Method: 5,000 CSES2 cells were plated in 50 μl per well of mTeSR1 medium into black 384-well clear-bottom plates (Falcon BD) pre-coated with Matrigel™ using WellMate cell dispenser (Matrix, Hudson, N.H.). 24 hours after plating, medium was replaced with 25 μl of fresh medium and 25 μl of 40 μM compound medium solutions in 1% DMSO from the intermediate compound dilution plates. The plates were incubated at 37° C., in a 5% CO2 atmosphere, for the entire duration of the screen, apart from the time required for liquid handling. Cell viability was determined 24 hours after compound treatment using CellTiter-Glo® luminescent cell viability assay kits. 50 μl of CellTiter-Glo® reagent was added to each well of the assay plates and fully mixed. After incubation at room temperature for 15 minutes, 25 μl of liquid was transferred from each well into a white opaque-bottom 384-well plate (PerkinElmer), and luminescence was measured using an EnVision® plate reader (PerkinElmer). 16 neutral control wells (0.5% DMSO) and 8 positive control wells (5 μM amsacrine hydrochloride were used to normalize the compound effect. All liquid transfer steps were handled with a Biomek® FXP Laboratory Automation Workstation (Beckman Coulter, Fullerton, Calif.) and Muitidrop Combi liquid dispenser (Thermo Fisher, Waltham, Mass.). An Assay Analyzer (Genedata, Basel, Switzerland) was used for data pattern correction and calculation. The Spotfire software (Spotfire, Somerville, Mass.) was used for data illustration.
The compounds identified as hits from the primary screen were retested at a concentration of 20 μM against three pluripotent stem cell lines (CSES2, H9 and CSES2-SO2/3) for confirmation screens.
The raw intensity data for each well were background-corrected by subtraction of the median intensities across all positive control wells on the same plate, and used to calculate the inhibitory effect of each compound per cell line. A Genedata Assay Analyzer and Condoseo were used for data pattern correction, calculation and IC50 curve fitting. A Z′ factor was determined for each plate.

[2] = test system: ES-derived neural stem cells; experiment: CellTiter-Glo counter-screen, neural stem cells; details: Homo sapiens, Neural stem cell
[3] = test system: ES-derived mesenchymal stem cells; experiment: CellTiter-Glo counter-screen, mesenchymal stem cells; details: Homo sapiens, at 20 μM (table title)
BJ-fibroblasts = experiment: CellTiter-Glo counter-screen, BJ-fibroblasts; details: Homo sapiens; for EC50: 24 hours, differentiated cells
Method: (§1) The cervical carcinoma cell line HeLa, teratocarcinoma cell line NTERA-2, and immortalized BJ fibroblast cell line, were cultured in DMEM supplemented with 10% FBS, penicillin (50 U/ml) and streptomycin (50 μg/ml).
(§2) 696 confirmed hits from the confirmation screen were tested for profiling in a panel of 13 different cell types, using the same screening protocol described above (except in the case of embryonic stem cell-derived neural stem cells (NSCs) and mesenchymal stem cells (MSCs), for which the protocol is described below). As discussed below, compounds were tested either in dose-dependent multiple concentration manner or in single concentration manner. CSES2 and CSES2-SO2/3 cell lines and the early endodermal progenitors derived from this cell line (CSES2-SO2/3-differentiated) were screened at 8 concentrations ranging from 50 μM to 23 nM with 1:3 serial dilution steps. BJ-iPS28 cell line and the BJ fibroblasts from which it was derived were screened at 6 concentrations ranging from 50 μM to 200 nM with 1:3 serial dilution steps. Cardiomyocytes were screened in one concentration of 20 μM. HeLa and NTERA-2 cell lines were screened in duplicates of 20 μM. Kelly and Huh-7 were screened in triplicates of 20 μM. Hepatocytes were screened in duplicates of 20 μM in the original 96-well plates in which the cells arrived (40,000 cells per well, in 160 μl medium, the volumes of all reagents involved were adjusted accordingly). MSCs and NSCs were screened in duplicates of 12.5 μM.
(§3) In order to identify highly-selective cytotoxic inhibitors of hPSCs, the 696 cytotoxic inhibitors of hPSCs identified as described in Example 1 were counter-screened as described in the Materials and Methods section against other cell types, representative of all germ layers and developmental stages. Importantly, many of these cell types were differentiated from human ES or iPS cells. The screened cell types included ES-derived neural stem cells (NSCs), ES-derived mesenchymal stem cells (MSCs), ES-derived endodermal progenitor cells, ES-derived hepatocytes, iPS-derived cardiomyocytes, iPS-derived fibroblasts of origin (BJ fibroblasts), and three cancer cell lines: neuroblastoma (Kelly), cervical cancer (HeLa) and hepatocarcinoma (Huh7). The cell types and their relationship to stem cells are depicted schematically in FIG. 14.
In addition, the identified compounds were screened at 6 concentrations using the BJ-fibroblasts from which the iPS line BJ-iPS28 had been derived, and reliable EC50 values were thereby calculated for both the iPS cells and for their somatic cells of origin.

HeLa cells = experiment: CellTiter-Glo counter-screen, HeLa; details: Homo sapiens, cancer cells
Method: as §1, §2, §3

Huh7 cells = experiment: CellTiter-Glo counter-screen, Huh7; details: Homo sapiens, Huh-7, cancer cells
Method: The hepatocarcinoma cell line Huh-7 was cultured in a DMEM/F12 (1:1) medium, supplemented with 10% FBS, penicillin (50 U/ml) and streptomycin (50 μg/ml).
as §2, §3

[4] = test system: human embryonic stem cells; experiment: Oleic acid rescue assay; details: 20 μM PluriSIn (2 μM amsacrine); up to 100 μM BSA-OA
Method: Human embryonic stem cells were cultured without feeder cells in CELLSTAR® 24-well tissue culture plates (Greiner Bio-One) pre-coated with Matrigel™, using mTeSR1 defined medium. […] After 24 hours, the cells were subjected to microscopy imaging and to cell viability measurements.
In order to further investigate the effect of SCD activity on hPSC viability, the ability of exogenous supplementation of oleic acid (the direct product of SCD1) to rescue cells from PluriSIn-induced apoptosis was further studied, using procedures described in the Materials and Methods section. Cells were exposed to PluriSn #1 in the presence of increasing concentrations of BSA-conjugated oleic acid (BSA-OA).
For comparison, cells were exposed to 20 μM of PluriSIn #1, #2, #3 and #6 in the presence of 100 μM BSA-OA.

| Structure (SMILES) | inhibition at 20 µM [1] | inhibition at 12.5 µM [2] | inhibition at 12.5 µM [3] | EC50 (BJ-fibroblasts) | inhibition at 20 µM (BJ-fibroblasts) | inhibition at 20 µM (HeLa cells) | inhibition at 20 µM (Huh7 cells) | protection by BSA-conjugated oleic acid (BSA-OA) against cell death induced by the compound [4] |
| --- | --- | --- | --- | --- | --- | --- | --- | --- |
| CCCCCC(=O)NNc1ccc(Cl)cc1 [PluriSIn #10] | 88% | 23.7% | 3.9% | > 50 µM | -20.1% | 3% | 9.3% |  |
| O=C(NNc1ccccc1)c1ccncc1 [PluriSIn #1, isonicotinic acid N′-phenylhydrazide] | 88.6% | 18.2% | -4.9% | > 50 µM | -8.8% | 5.7% | 5.8% | full rescue; also recorded: protected |
| Cc1ccc(NNC(=O)C(O)(c2ccccc2)c2cccs2)cc1 (stereo not drawn) [PluriSIn #6, 2-hydroxy-2-(thiophen-2-yl)-2-phenylacetic acid 4-methyl-N′-phenylhydrazide] | 90.1% | 16.5% | -19.7% | > 50 µM | 15.9% | 2.6% | 4.6% | protected |
| Cc1oc2ccccc2c1/C=N/Nc1ccccc1 [PluriSIn #8] | 85.5% | 15% | -33.8% | > 50 µM | -10.3% | 14.3% | 10.9% |  |
| Nc1cc(N)cc(COc2ccc(-c3ccccc3)cc2)c1 [PluriSIn #3] | 110% | 90.4% | 3.3% | > 50 µM | -25.4% | -4.2% | -5.9% |  |
| O=C(Nc1ccccc1)n1cc(F)c(=O)[nH]c1=O [PluriSIn #2] | 65.4% | 53.6% | -1.4% | > 50 µM | -8.3% | -2.1% | -0.2% |  |
| CCN(CC)C(=O)C(=O)c1c(-c2ccccc2)[nH]c2c1sc1ccccc12 [PluriSIn #12] | 95.8% | 9.9% | -7.3% | > 50 µM | -8.4% | 15.2% | -1% |  |
| C/C(=N\O)NNc1ccc(Cl)cc1 [PluriSIn #9] | 101% | 28.9% | -12.6% | > 50 µM | -22.7% | -0.7% | 10.4% |  |
| C(=N\C1CCC(CC2CCCCC2)CC1)/OC1CCOC1 (stereo not drawn) [PluriSIn #15] | 79.5% | 70.3% | 12% | > 50 µM | -6.1% | 17.8% | 22.2% |  |
| O=C(NCCc1ccc(O)cc1)c1ccc(N2CCCCC2)cc1 [PluriSIn #4] | 74.1% | 15.5% | -8.1% | > 50 µM | -22.9% | 2.2% | 12.1% |  |
| O=C(NN(C(=O)c1ccccc1)c1ccccc1)c1ccc(Cl)cc1 [PluriSIn #14] | 79.4% | 18.4% | -1.5% | > 50 µM | -18.6% | -2.3% | 11.5% |  |
| O=S(=O)(NNc1ccccc1)c1ccc2ccccc2c1 [PluriSIn #5] | 82.2% | 60.9% | 6.4% | > 50 µM | -7.5% | -0.6% | 3.6% | protected |
| CC(=O)Oc1ccc(/C=C/c2ccc3c(c2)CCN3C)cc1 [PluriSIn #7] | 109% | 92.8% | 35.8% | > 50 µM | -9.7% | -3.6% | 11.2% |  |
| CCOC(=O)CN1CC(=O)/C(=C\NNc2ccccc2)C1=O [PluriSIn #11] | 94% | 17.2% | 6% | > 50 µM | -19.3% | -0.7% | 7% |  |
| O=C1C=CC=C1/C=C/C(=N\Nc1ccccc1)c1ccccc1 [PluriSIn #13] | 101% | 29.7% | -7.3% | > 50 µM | -15.4% | 0% | 11.8% |  |

From patent publication US20180153830A1, “SELECTIVE INHIBITORS OF UNDIFFERENTIATED CELLS” (Yissum Research Development Company of the Hebrew …, priority 2012, published 2018)
